In patent US12053452B2 (priority 2021, dated 2024):
Like-named read-outs stand apart in the source and are kept apart here.

Assays:
[1] = rats, cited from earlier work; for Cmax (maximum MDMA concentration): 2 mg/kg; for Cmax: 10 mg/kg
[2] = phase 3 trials, MDMA-assisted psychotherapy; cited from earlier work
BTBR mice = test: Sociability test, BTBR; assay type: in vivo; conditions: 3.0 mg/kg IP
Description: This assay was conducted in adult male C57 and BTBR mice (n=6 per group) in a dedicated conditioning room where ambient light, sound, and human contact were tightly controlled. Social preference chambers consist of two polycarbonate boxes (13.5 cm wide×22.5 cm tall×31.0 cm deep), floored with rough-textured black ABS plastic, and connected to one another by a 1.25″ PVC T-junction. An infrared photobeam emitter/detector array is mounted at each intersection of the T-junction and each preference compartment, and as a mouse traversed the apparatus, it would break the photobeam upon entry to or exit from each preference compartment. Beam breaks started or stopped a counter on an interfaced computer, allowing automated collection of time spent in each compartment. At the end of each test, data were reported as time (in seconds) spent in each compartment, the number of entries into each compartment, and the average time spent in each compartment following an entry. Social preference tests were conducted in an iterative manner, with each test subject completing four distinct phases as described below. Between testing sessions, chambers were sanitized by wiping the insides with a disinfectant product provided by the UAMS Department of Laboratory Animal Medicine. […]

SMILES	Cmax (maximum MDMA concentration) ([1]; intraperitoneal)	Cmax (maximum MDMA concentration) ([1]; oral)	Cmax (maximum MDMA concentration) ([1]; subcutaneous)	Cmax ([1]; intraperitoneal)	Cmax ([1]; oral)	Cmax ([1]; subcutaneous)	efficacy to treat Post Traumatic Stress Disorder (PTSD) [2]	sociability (time spent with the stranger mouse vs dummy) (BTBR mice)
CNC(C)Cc1ccc2c(c1)OCO2 (racemic) [racemic MDMA, 1-(1,3-benzodioxol-5-yl)-N-methylpropan-2-amine]	0.21 µg/mL	0.046 µg/mL	0.196 µg/mL	2.257 µg/mL	0.966 µg/mL	1.13 µg/mL	demonstrated efficacy	–
CN[C@@H](C)Cc1ccc2c(c1)OCO2 [S(+)-MDMA, (2S)-1-(1,3-benzodioxol-5-yl)-N-methylpropan-2-amine]	–	–	–	–	–	–	–	did not alter sociability
